Source: ChEMBL document CHEMBL1275563, “Genetic characterization of Vga ABC proteins conferring reduced susceptibility to pleuromutilins in Staphylococcus aureus” (2008)
Values after ≈ are worked out from the molar mass of the structure shown. Numbered stars: 1 amine (or outer) side, 2 acyl side, 3 side chain; on linkers, the order of the positions; unused ones are H or OH. Bridge positions count the residues as written; N and C are the ends. Square brackets hold non-standard residues; d marks the D form. Peptide text beside a SMILES is read from it. * marks the point of attachment. X1 = O=C1C[C@@H](C(=O)[*:2])N([*:1])C[C@H]1CS[C@@H]1CN2CCC1CC2; NMePhe(4-NMe2) = CN[C@@H](Cc1ccc(N(C)C)cc1)C(=O)O; Picolinoyl(3-OH) = O=C(c1ncccc1O)*; Phg = N[C@H](C(=O)O)c1ccccc1; dAbu = CC[C@@H](N)C(=O)O

Columns and labels:
Staphylococcus aureus [1] = experiment: Antimicrobial activity against Staphylococcus aureus RN4220; type: functional
Staphylococcus aureus [2] = experiment: Antimicrobial activity against Staphylococcus aureus RN4220 harboring plasmid VGA
Staphylococcus aureus [3] = experiment: Antimicrobial activity against Staphylococcus aureus RN4220 harboring plasmid CU1
Staphylococcus aureus [4] = experiment: Antimicrobial activity against Staphylococcus aureus RN4220 harboring vgaAv positive plasmid CU1
Staphylococcus aureus [5] = experiment: Antimicrobial activity against Staphylococcus aureus RN1024; type: functional
Staphylococcus aureus [6] = experiment: Antimicrobial activity against Staphylococcus aureus RN1024-tms; type: functional
Staphylococcus aureus [7] = experiment: microbe, parasite or virus in culture; details: ATCC 29213
Description: Antimicrobial activity against Staphylococcus aureus ATCC 29213

Staphylococcus aureus [8] = experiment: Antimicrobial activity against Staphylococcus aureus IV20204009 harboring vgaAv positive Tn5406 transposon; type: functional
Staphylococcus aureus [9] = experiment: Antimicrobial activity against Staphylococcus aureus IV20205004 harboring vgaAv positive Tn5406 transposon; type: functional
Staphylococcus aureus [10] = experiment: Antimicrobial activity against Staphylococcus aureus IV20217008 harboring vgaAv positive Tn5406 transposon; type: functional
Staphylococcus aureus [11] = experiment: Antimicrobial activity against Staphylococcus aureus IV20217033 harboring vgaA positive plasmid VGA; type: functional
Staphylococcus aureus [12] = experiment: Antimicrobial activity against Staphylococcus aureus IV20222009 harboring vgaAv positive Tn5406 transposon; type: functional
Staphylococcus aureus [13] = experiment: Antimicrobial activity against Staphylococcus aureus IHMA127277 harboring vgaAv positive Tn5406 transposon; type: functional

Compound	MIC (Staphylococcus aureus [1]) [µg/mL]	MIC (Staphylococcus aureus [2]) [µg/mL]	MIC (Staphylococcus aureus [3]) [µg/mL]	MIC (Staphylococcus aureus [4]) [µg/mL]	MIC (Staphylococcus aureus [5]) [µg/mL]	MIC (Staphylococcus aureus [6]) [µg/mL]	MIC (Staphylococcus aureus [7]) [µg/mL]	MIC (Staphylococcus aureus [8]) [µg/mL]	MIC (Staphylococcus aureus [9]) [µg/mL]	MIC (Staphylococcus aureus [10]) [µg/mL]	MIC (Staphylococcus aureus [11]) [µg/mL]	MIC (Staphylococcus aureus [12]) [µg/mL]	MIC (Staphylococcus aureus [13]) [µg/mL]
CCC[C@@H]1C[C@@H](C(=O)N[C@@H]([C@H]2O[C@H](SC)[C@H](O)[C@@H](O)[C@H]2O)[C@@H](C)O)N(C)C1 [LINCOMYCIN]	0.5 (≈ 1.23 µM)	32 (≈ 78.7 µM)	0.5 (≈ 1.23 µM)	32 (≈ 78.7 µM)	8 (≈ 19.7 µM)	1 (≈ 2.46 µM)	2 (≈ 4.92 µM)						
CN(C)[C@@H]1C(O)=C(C(N)=O)C(=O)[C@@]2(O)C(O)=C3C(=O)c4c(O)cccc4[C@@](C)(O)[C@H]3C[C@@H]12 [TETRACYCLINE]	0.25 (≈ 0.563 µM)		0.25 (≈ 0.563 µM)	0.125 (≈ 0.281 µM)	64 (≈ 144 µM)	64 (≈ 144 µM)	0.5 (≈ 1.13 µM)						
C/C(=C\C(=O)OCCCCCCCCC(=O)O)C[C@@H]1OC[C@H](C[C@@H]2O[C@H]2[C@@H](C)[C@H](C)O)[C@@H](O)[C@H]1O [MUPIROCIN]	≤ 0.06				0.25 (≈ 0.499 µM)	0.25 (≈ 0.499 µM)	0.25 (≈ 0.499 µM)						
O=C(N[C@H](CO)[C@H](O)c1ccc([N+](=O)[O-])cc1)C(Cl)Cl [CHLORAMPHENICOL]	8 (≈ 24.8 µM)	8 (≈ 24.8 µM)	> 64	> 64	8 (≈ 24.8 µM)	8 (≈ 24.8 µM)	16 (≈ 49.5 µM)						
CCN(CC)CCS(=O)(=O)[C@@H]1CCN2C(=O)c3coc(n3)CC(=O)C[C@H](O)/C=C(C)/C=C/CNC(=O)/C=C/[C@@H](C)[C@@H](C(C)C)OC(=O)[C@@H]12 [DALFOPRISTIN]	4 (≈ 5.79 µM)	32 (≈ 46.3 µM)	4 (≈ 5.79 µM)	64 (≈ 92.6 µM)	64 (≈ 92.6 µM)	8 (≈ 11.6 µM)	8 (≈ 11.6 µM)						
CC(=O)NC[C@H]1CN(c2ccc(N3CCOCC3)c(F)c2)C(=O)O1 [LINEZOLID]				1 (≈ 2.96 µM)									
COc1cc(Cc2cnc(N)nc2N)cc(OC)c1OC [TRIMETHOPRIM]	2 (≈ 6.89 µM)	2 (≈ 6.89 µM)	2 (≈ 6.89 µM)	2 (≈ 6.89 µM)	2 (≈ 6.89 µM)	2 (≈ 6.89 µM)	2 (≈ 6.89 µM)						
GENTAMICIN	1				> 64	> 64							
C=C[C@]1(C)C[C@@H](OC(=O)CS[C@@H]2C[C@H]3CC[C@@H](C2)N3C)[C@]2(C)[C@H](C)CC[C@]3(CCC(=O)[C@H]32)[C@@H](C)[C@@H]1O [RETAPAMULIN]	≤ 0.06	32 (≈ 61.8 µM)		32 (≈ 61.8 µM)	2 (≈ 3.86 µM)	≤ 0.06	≤ 0.06	2 (≈ 3.86 µM)	2 (≈ 3.86 µM)	4 (≈ 7.73 µM)	64 (≈ 124 µM)	4 (≈ 7.73 µM)	2 (≈ 3.86 µM)
C=C[C@]1(C)C[C@@H](OC(=O)CSCCN(CC)CC)[C@]2(C)[C@H](C)CC[C@]3(CCC(=O)[C@H]32)[C@@H](C)[C@@H]1O [TIAMULIN]	0.5 (≈ 1.01 µM)	> 64	0.25 (≈ 0.506 µM)	> 64	16 (≈ 32.4 µM)	0.5 (≈ 1.01 µM)	1 (≈ 2.03 µM)	32 (≈ 64.8 µM)	16 (≈ 32.4 µM)	32 (≈ 64.8 µM)	> 64	16 (≈ 32.4 µM)	
CO[C@H]1/C=C/O[C@@]2(C)Oc3c(C)c(O)c4c(O)c(c(/C=N/N5CCN(C)CC5)c(O)c4c3C2=O)NC(=O)/C(C)=C\C=C\[C@H](C)[C@H](O)[C@@H](C)[C@@H](O)[C@@H](C)[C@H](OC(C)=O)[C@@H]1C [RIFAMPIN]	≤ 0.06				> 64	> 64	< 0.06						
CCC[C@@H]1C[C@@H](C(=O)N[C@@H]([C@H]2O[C@H](SC)[C@H](O)[C@@H](O)[C@H]2O)[C@H](C)Cl)N(C)C1 [CLINDAMYCIN]	0.06 (≈ 0.141 µM)	4 (≈ 9.41 µM)	0.06 (≈ 0.141 µM)	2 (≈ 4.71 µM)	0.25 (≈ 0.588 µM)	0.06 (≈ 0.141 µM)	0.125 (≈ 0.294 µM)						
CC[C@H]1OC(=O)[C@H](C)[C@@H](O[C@H]2C[C@@](C)(OC)[C@@H](O)[C@H](C)O2)[C@H](C)[C@@H](O[C@@H]2O[C@H](C)C[C@H](N(C)C)[C@H]2O)[C@](C)(O)C[C@@H](C)C(=O)[C@H](C)[C@@H](O)[C@]1(C)O [ERYTHROMYCIN]	0.25 (≈ 0.341 µM)	0.25 (≈ 0.341 µM)	0.25 (≈ 0.341 µM)	0.125 (≈ 0.17 µM)	0.25 (≈ 0.341 µM)	0.25 (≈ 0.341 µM)	0.5 (≈ 0.681 µM)						
CC[C@H]1NC(=O)[C@@H](NC(=O)c2ncccc2O)[C@@H](C)OC(=O)[C@H](c2ccccc2)NC(=O)[C@@H]2CC(=O)[C@H](CS[C@@H]3CN4CCC3CC4)CN2C(=O)[C@H](Cc2ccc(N(C)C)cc2)N(C)C(=O)[C@@H]2CCCN2C1=O [QUINUPRISTIN] ({Picolinoyl(3-OH)}-T[dAbu]P[NMePhe(4-NMe2)][X1][Phg]; ester 1-C)	4 (≈ 3.91 µM)	4 (≈ 3.91 µM)	4 (≈ 3.91 µM)	1 (≈ 0.978 µM)	4 (≈ 3.91 µM)	4 (≈ 3.91 µM)	4 (≈ 3.91 µM)						
C[C@H]1COc2c(N3CCN(C)CC3)c(F)cc3c(=O)c(C(=O)O)cn1c23.C[C@H]1COc2c(N3CCN(C)CC3)c(F)cc3c(=O)c(C(=O)O)cn1c23.O [LEVOFLOXACIN]	0.125	0.125	0.125	0.125	16	32	0.125						
